In patent publication US12187742B2 (XRAD Therapeutics, Inc., priority 2018, dated 2025):
Counter-ions that a name gives are not always drawn.

Molecular target: ATM (Homo sapiens (Human), UniProt Q13315)
Experiment: ATM in Cell Western Assay (pKAP1 in etoposide-treated MCF-7 cells)
Type: cell-based
Conditions: MCF-7 cells, etoposide 100 μM, 1 hr, pKAP1 readout
Summary of the method: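 Cells received compounds in a 10-dose, 3-fold series from a 1 μM final top concentration, then 100 μM etoposide, for 1 hr at 37° C. They were then fixed with paraformaldehyde and permeabilized with 0.1% Triton X-100. After immunostaining, plates were scanned on an infrared imager.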

Chain of ATM (Q13315 whole entry): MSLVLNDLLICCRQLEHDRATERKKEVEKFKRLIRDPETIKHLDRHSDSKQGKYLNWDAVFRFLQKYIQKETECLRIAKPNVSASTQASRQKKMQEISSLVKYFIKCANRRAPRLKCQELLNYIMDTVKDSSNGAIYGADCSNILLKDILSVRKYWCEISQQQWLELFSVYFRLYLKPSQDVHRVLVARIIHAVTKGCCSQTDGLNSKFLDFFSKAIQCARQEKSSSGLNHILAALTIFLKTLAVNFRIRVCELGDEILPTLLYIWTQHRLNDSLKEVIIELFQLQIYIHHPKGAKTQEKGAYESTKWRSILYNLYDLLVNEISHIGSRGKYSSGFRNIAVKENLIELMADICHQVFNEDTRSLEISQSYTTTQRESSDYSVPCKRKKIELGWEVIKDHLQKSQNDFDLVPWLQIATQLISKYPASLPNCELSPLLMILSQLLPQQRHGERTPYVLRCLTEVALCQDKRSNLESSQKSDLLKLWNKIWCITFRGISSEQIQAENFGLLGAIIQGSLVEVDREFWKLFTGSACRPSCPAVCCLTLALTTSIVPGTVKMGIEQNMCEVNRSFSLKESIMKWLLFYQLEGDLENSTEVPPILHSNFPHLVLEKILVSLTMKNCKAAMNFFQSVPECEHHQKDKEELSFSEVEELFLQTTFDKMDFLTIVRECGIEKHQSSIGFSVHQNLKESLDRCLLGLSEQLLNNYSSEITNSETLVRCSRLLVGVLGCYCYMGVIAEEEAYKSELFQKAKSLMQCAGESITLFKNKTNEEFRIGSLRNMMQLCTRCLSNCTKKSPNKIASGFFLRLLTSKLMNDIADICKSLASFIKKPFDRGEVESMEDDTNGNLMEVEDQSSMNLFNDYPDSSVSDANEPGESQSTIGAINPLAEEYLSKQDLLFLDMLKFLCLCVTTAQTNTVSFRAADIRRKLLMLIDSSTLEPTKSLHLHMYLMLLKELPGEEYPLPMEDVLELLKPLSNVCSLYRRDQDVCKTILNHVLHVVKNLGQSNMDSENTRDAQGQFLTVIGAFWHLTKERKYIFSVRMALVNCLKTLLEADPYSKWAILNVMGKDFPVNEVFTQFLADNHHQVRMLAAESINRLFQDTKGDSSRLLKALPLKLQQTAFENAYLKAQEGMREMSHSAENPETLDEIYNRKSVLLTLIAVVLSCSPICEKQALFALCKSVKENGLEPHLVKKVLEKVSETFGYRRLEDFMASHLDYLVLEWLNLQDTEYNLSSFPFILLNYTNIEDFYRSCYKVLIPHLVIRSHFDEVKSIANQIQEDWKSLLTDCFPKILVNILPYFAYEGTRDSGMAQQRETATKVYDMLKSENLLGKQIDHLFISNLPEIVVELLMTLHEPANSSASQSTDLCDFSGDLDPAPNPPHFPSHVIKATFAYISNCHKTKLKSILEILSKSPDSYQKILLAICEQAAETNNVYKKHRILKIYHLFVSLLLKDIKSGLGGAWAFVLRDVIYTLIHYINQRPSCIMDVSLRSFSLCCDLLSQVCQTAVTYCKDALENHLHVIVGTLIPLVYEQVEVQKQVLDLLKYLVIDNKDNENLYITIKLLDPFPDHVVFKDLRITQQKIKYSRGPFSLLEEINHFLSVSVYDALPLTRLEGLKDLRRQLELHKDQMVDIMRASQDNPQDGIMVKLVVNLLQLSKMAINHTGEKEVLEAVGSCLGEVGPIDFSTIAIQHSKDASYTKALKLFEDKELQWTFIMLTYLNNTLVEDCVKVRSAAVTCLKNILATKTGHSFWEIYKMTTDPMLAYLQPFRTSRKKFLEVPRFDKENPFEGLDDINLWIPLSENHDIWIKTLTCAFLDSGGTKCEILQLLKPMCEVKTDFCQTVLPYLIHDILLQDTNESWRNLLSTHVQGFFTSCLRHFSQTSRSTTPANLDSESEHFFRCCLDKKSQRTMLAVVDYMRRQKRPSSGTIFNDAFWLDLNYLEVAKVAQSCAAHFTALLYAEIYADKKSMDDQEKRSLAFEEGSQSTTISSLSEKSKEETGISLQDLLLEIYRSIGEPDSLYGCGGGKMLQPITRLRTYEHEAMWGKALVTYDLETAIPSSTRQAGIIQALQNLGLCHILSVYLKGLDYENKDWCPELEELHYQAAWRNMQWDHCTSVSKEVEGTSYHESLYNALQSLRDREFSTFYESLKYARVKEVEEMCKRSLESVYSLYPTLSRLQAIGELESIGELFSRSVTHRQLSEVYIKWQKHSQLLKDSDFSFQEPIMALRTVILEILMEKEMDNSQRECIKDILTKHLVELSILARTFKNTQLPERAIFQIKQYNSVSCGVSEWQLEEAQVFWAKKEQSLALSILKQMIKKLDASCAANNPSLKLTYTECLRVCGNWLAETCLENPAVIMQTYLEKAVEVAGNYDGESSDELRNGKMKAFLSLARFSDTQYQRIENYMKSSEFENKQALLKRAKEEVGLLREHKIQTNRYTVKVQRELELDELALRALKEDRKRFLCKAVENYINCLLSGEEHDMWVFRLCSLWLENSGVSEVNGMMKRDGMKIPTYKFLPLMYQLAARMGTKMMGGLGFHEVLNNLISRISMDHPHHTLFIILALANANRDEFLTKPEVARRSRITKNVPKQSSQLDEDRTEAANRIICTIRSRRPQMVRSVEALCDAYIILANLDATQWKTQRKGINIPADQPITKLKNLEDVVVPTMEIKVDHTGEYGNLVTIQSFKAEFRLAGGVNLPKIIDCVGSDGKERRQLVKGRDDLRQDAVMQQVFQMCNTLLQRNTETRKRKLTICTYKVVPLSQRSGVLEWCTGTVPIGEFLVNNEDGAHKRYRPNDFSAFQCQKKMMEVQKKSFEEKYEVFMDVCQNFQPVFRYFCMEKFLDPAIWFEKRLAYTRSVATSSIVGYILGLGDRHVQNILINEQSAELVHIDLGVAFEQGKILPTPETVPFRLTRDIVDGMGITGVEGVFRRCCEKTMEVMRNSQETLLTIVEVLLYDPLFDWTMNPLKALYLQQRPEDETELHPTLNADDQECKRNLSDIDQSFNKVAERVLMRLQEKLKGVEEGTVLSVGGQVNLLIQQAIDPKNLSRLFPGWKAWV

SMILES	IC50
CN(C)CCCOc1ncc(-c2ccc3ncc4c(c3c2)N(C)C2(CC2)C(=O)N4C)cc1NS(=O)(=O)c1ccccc1 [Example 74, N-(5-(1′,4′-Dimethyl-3′-oxo-34′-dihydro-1′H-spiro[cyclopropane-1,2′-pyrazino[2,3-c]quinolin]-9′-yl)-2-(3-(dimethylamino)propoxy)pyridin-3-yl) benzenesulfonamide]	> 100 nM
[2H]C([2H])(COc1ncc(-c2ccc3ncc4c(c3c2)C2(CCC2)C(=O)N4C)cc1NS(=O)(=O)c1ccc(C)nc1)CN1CCCCC1 [Example 219, 6-Methyl-N-(5-(3′-methyl-2′-oxo-2′,3′-dihydrospiro[cyclobulane-1,1′-pyrrolo[2,3-c]quinolin]-8′-yl)-2-(3-(piperidin-1-yl)propoxy-2,2-d2)pyridin-3-yl)pyridine-3-sulfonamide]	> 100 nM
CN1C(=O)C2(CC2)c2c1cnc1ccc(-c3cnc(OCCC[N+](C)(C)[O-])c(NS(=O)(=O)c4ccccc4)c3)cc21 [Example 140, N,N-Dimethyl-3-((5-(3′-methyl-2′-oxo-2′,3′-dihydrospiro[cyclopropane-1,1′-pyrrolo[2,3-c]quinolin]-8′-yl)-3-(phenylsulfonamido)pyridin-2-yl)oxy)propan-1-amine oxide]	1 to 100 nM
CN(C)CCCOc1ncc(-c2ccc3ncc4c(c3c2)C2(CCC2)C(=O)N4C)cc1NS(=O)(=O)N(C)Cc1ccccc1 [Example 182, N-Benzyl-N-methyl({2-[3-(dimethylamino)propoxy]-5-{3′-methyl-2′-oxo-2′,3′-dihydrospiro[cyclobulane-1,1′-pyrrolo[2,3-c]quinoline]-8′-yl}pyridin-3-yl}amino)sulfonamide]	1 to 100 nM
CN1C(=O)C2(CCC2)c2c1cnc1ccc(-c3cnc(OCCCN4CCNCC4)c(NS(C)(=O)=O)c3)cc21 [Example 300, N-(5-(3′-Methyl-2′-oxo-2′,3′-dihydrospiro[cyclobutane-1,1′-pyrrole[2,3-c]quinolin]-8′-yl)-2-(3-(piperazin-1-yl)propoxy)pyridin-3-yl) methanesulfonamide]	1 to 100 nM
COc1ncc(-c2ccc3ncc4c(c3c2)C2(CC2)C(=O)N4Cc2cn[nH]c2)cc1NS(=O)(=O)c1ccccc1 [Example 11, N-(5-(3′-((1H-Pyrazol-4-yl)methyl)-2′-oxo-2′,3′-dihydrospiro[cyclopropane-1,1′-pyrrolo[2,3-c]quinolin]-8′-yl)-2-methoxypyridin-3-yl) benzenesulfonamide]	> 100 nM

Same assay, conditions: pKAP1 in etoposide-treated MCF-7 cells

SMILES	IC50
CC(C)NCCOc1ncc(-c2cc3c4c(cnc3cc2F)N(C)C(=O)C42CN(CCO)C2)cc1NS(C)(=O)=O [Example 506, N-(5-(7′-Fluoro-1-(2-hydroxyethyl)-3′-methyl-2′-oxo-2′,3′-dihydrospiro[azetidine-3,1′-pyrrolo[2,3-c]quinolin]-8′-yl)-2-(2-(isopropylamino)ethoxy)pyridin-3-yl)methanesulfonamide]	1 to 100 nM
CCCCN1CC2(C1)C(=O)N(C)c1cnc3cc(F)c(-c4cnc(OCCNC(C)C)c(NS(C)(=O)=O)c4)cc3c12 [Example 489, N-(5-(1-butyl-7′-fluoro-3′-methyl-2′-oxo-2′,3′-dihydrospiro[azetidine-3,1′-pyrrolo[2,3-c]quinolin]-8′-yl)-2-(2-(isopropylamino)ethoxy)pyridin-3-yl)methanesulfonamide]	1 to 100 nM
CC(C)NCCOc1ncc(-c2cc3c(cc2F)ncc2c3[C@]3(C[C@@H](c4ccc(=O)[nH]c4)C3)C(=O)N2C)cc1NS(C)(=O)=O [Example 443, trans-N-(5-(7′-Fluoro-3′-methyl-2′-oxo-3-(6-oxo-1,6-dihydropyridin-3-yl)-2′,3′-dihydrospiro[cyclobutane-1,1′-pyrrolo[2,3-c]quinolin]-8′-yl)-2-(2-(isopropylamino)ethoxy)pyridin-3-yl)methanesulfonamide]	> 100 nM
CN(C)CCN(C)c1ncc(-c2cc3c4c(cnc3cc2F)N(C)C(=O)C42CCC2)cc1NS(C)(=O)=O [Example 363, N-(2-((2-(Dimethylamino)ethyl)(methyl)amino)-5-(7′-fluoro-3′-methyl-2′-oxo-2′,3′-dihydrospiro[cyclobutane-1,1′-pyrrolo[2,3-c]quinolin]-8′-yl)pyridin-3-yl)methanesulfonamide hydrochloride]	> 100 nM
CCC(C)N1CC2(C1)C(=O)N(C)c1cnc3cc(F)c(-c4cnc(OCCNC(C)C)c(NS(C)(=O)=O)c4)cc3c12 (centres unmarked) [Example 487, N-(5-(1-(sec-Butyl)-7′-fluoro-3′-methyl-2′-oxo-2′,3′-dihydrospiro[azetidine-3,1′-pyrrolo[2,3-c]quinolin]-8′-yl)-2-(2-(isopropylamino)ethoxy)pyridin-3-yl)methanesulfonamide]	1 to 100 nM
CC(C)NCCOc1ncc(-c2cc3c(cc2F)ncc2c3[C@]3(C[C@@H](N4CCOCC4)C3)C(=O)N2C)cc1NS(C)(=O)=O [Example 472, trans-N-(5-(7′-Fluoro-3′-methyl-3-morpholino-2′-oxo-2′,3′-dihydrospiro[cyclobutane-1,1′-pyrrolo[2,3-c]quinolin]-8′-yl)-2-(2-(isopropylamino)ethoxy)pyridin-3-yl)methanesulfonamide]	> 100 nM
CC(C)NCCOc1ncc(-c2ccc3ncc4c(c3c2F)C2(CCC2)C(=O)N4C)cc1NS(C)(=O)=O [Example 556, N-(5-(9′-Fluoro-3′-methyl-2′-oxo-2′,3′-dihydrospiro[cyclobutane-1,1′-pyrrolo[2,3-c]quinolin]-8′-yl)-2-(2-(isopropylamino)ethoxy)pyridin-3-yl)methanesulfonamide hydrochloride]	1 to 100 nM
CC(C)NCCOc1ncc(-c2cc3c4c(cnc3cc2F)N(C)C(=O)C42CN(CC(F)F)C2)cc1NS(C)(=O)=O [Example 508, N-(5-(1-(2,2-Difluoroethyl)-7′-fluoro-3′-methyl-2′-oxo-2′,3′-dihydrospiro[azetidine-3,1′-pyrrolo[2,3-c]quinolin]-8′-yl)-2-(2-(isopropylamino)ethoxy)pyridin-3-yl)methanesulfonamide]	1 to 100 nM
CNS(=O)(=O)Nc1cc(-c2cc3c4c(cnc3cc2F)N(C)C(=O)C42CCC2)cnc1N1CC(N(C)C)C1 [Example 340, 8′-{6-[3-(Dimethylamino)azetidin-1-yl]-5-[(methylsulfamoyl)amino]pyridin-3-yl}-7′-fluoro-3′-methyl-2′,3′-dihydrospiro[cyclobutane-1,1′-pyrrolo[2,3-c]quinoline]-2′-one]	1 to 100 nM
CC(C)NCCOc1ncc(-c2cc3c4c(cnc3cc2F)N(C)C(=O)C42CN(C(=O)N(C)C)C2)cc1NS(C)(=O)=O [Example 518, 7′-Fluoro-8′-(6-(2-(isopropylamino)ethoxy)-5-(methylsulfonamido)pyridin-3-yl)-N,N,3′-trimethyl-2′-oxo-2′,3′-dihydrospiro[azetidine-3,1′-pyrrolo[2,3-c]quinoline]-1-carboxamide]	> 100 nM
CN1C(=O)C2(CCC2)c2c1cnc1cc(F)c(-c3cnc(OCCNCC(F)(F)F)c(NS(C)(=O)=O)c3)cc21 [Example 378, N-(5-(7′-Fluoro-3′-methyl-2′-oxo-2′,3′-dihydrospiro [cyclobutane-1,1′-pyrrolo[2.3-c]quinolin]-8′-yl)-2-(2-((2,2,2-trifluoroethyl)amino)ethoxy)pyridin-3-yl) methanesulfonamide hydrochloride]	> 100 nM
CNC[C@H]1C[C@@]2(C1)C(=O)N(C)c1cnc3cc(F)c(-c4cnc(OCCNC(C)C)c(NS(C)(=O)=O)c4)cc3c12 [Example 455, trans-N-(5-(7′-Fluoro-3′-methyl-3-((methylamino)methyl)-2′-oxo-2′,3′-dihydrospiro[cyclobutane-1,1′-pyrrolo[2,3-c]quinolin]-8′-yl)-2-(2-(isopropylamino)ethoxy)pyridin-3-yl)methanesulfonamide hydrochloride]	> 100 nM
CC(C)NCCOc1ncc(-c2cc3c4c(cnc3cc2F)N(C)C(=O)C42CN(C3CCOCC3)C2)cc1NS(C)(=O)=O [Example 500, N-(5-(7′-Fluoro-3′-methyl-2′-oxo-1-(tetrahydro-2H-pyran-4-yl)-2′,3′-dihydrospiro[azetidine-3,1′-pyrrolo[2,3-c]quinolin]-8′-yl)-2-(2-(isopropylamino)ethoxy)pyridin-3-yl)methanesulfonamide hydrochloride]	1 to 100 nM
CN1C(=O)C2(CCC2)c2c1cnc1ccc(-c3cnc(N4CC5CC(C4)N5)c(NS(C)(=O)=O)c3)cc21 [Example 360, N-(2-(3,6-Diazabicyclo[3.1.1]heptan-3-yl)-5-(3′-methyl-2′-oxo-2′,3′-dihydrospiro[cyclobutane-1,1′-pyrrolo[2,3-c]quinolin]-8′-yl)pyridin-3-yl) methanesulfonamide formate]	> 100 nM
CN(C)CCCOc1c(NS(C)(=O)=O)cc(-c2ccc3ncc4c(c3c2)C2(CCC2)C(=O)N4C)cc1C(=O)N(C)C [Example 564, 2-(3-(Dimethylamino)propoxy)-N,N-dimethyl-5-(3′-methyl-2′-oxo-2′,3′-dihydrospiro[cyclobutane-1,1′-pyrrolo[2,3-c]quinolin]-8′-yl)-3-(methylsulfonamido)benzamide]	> 100 nM
CC(C)CCN1CC2(C1)C(=O)N(C)c1cnc3cc(F)c(-c4cnc(OCCNC(C)C)c(NS(C)(=O)=O)c4)cc3c12 [Example 492, N-(5-(7′-Fluoro-1-isopentyl-3′-methyl-2′-oxo-2′,3′-dihydrospiro[azetidine-3,1′-pyrrolo[2,3-c]quinolin]-8′-yl)-2-(2-(isopropylamino)ethoxy)pyridin-3-yl)methanesulfonamide]	> 100 nM
CNC(=O)c1cc(-c2ccc3ncc4c(c3c2)C2(CCC2)C(=O)N4C)cc(NS(C)(=O)=O)c1OCCCN(C)C [Example 565, 2-(3-(Dimethylamino)propoxy)-N-methyl-5-(3′-methyl-2′-oxo-2′,3′-dihydrospiro[cyclobutane-1,1′-pyrrolo[2,3-c]quinolin]-8′-yl)-3-(methylsulfonamido)benzamide]	> 100 nM
